The text below walks through data of patent US5371102A, “Compositions and methods of inhibiting thyroid activity” (priority 1993, dated 1994).

In assay [1] the target is T1, LPX (Bos taurus, UniProt P80025).
T1 construct: purchased Sigma Chemical Company
Description: LPX suicide inactivation kinetics. The assay is classed as biochemical, bovine. Conditions: presence of hydrogen peroxide. From the text:
(§1) Materials used in the examples below were obtained from the following sources. Bovine LPX, bovine liver catalase, glucose oxidase, 30% hydrogen peroxide, glucose, guaiacol, ABTS and deuterium oxide were purchased from Sigma Chemical Company. Selenium dioxide, MBI ^13 CH3 I and PBA were purchased from Aldrich Chemical Company and PBA was purified as previously described by Fieset et al., Reagents for Organic Synthesis, Vol. I, pp.135-139, John Wiley and Sons, N.Y. (1967). LPX purity was checked by PAGE, as described by Doerge, D.R., et al. in, Biochem. Pharmacol., Vol.36, pp.972-974 (1986). TPX was purified from hog thyroids obtained from a local slaughterhouse by published procedures. Doerge & Takazowa, Chemical Research in Toxicology, Vol. 3, pp. 98-101 (1990). TPX purity was determined by LC and its concentration determined spectophotometrically. Hydroperoxide concentrations were determined by iodometric titration, as described by Kolthoff, et al., in "Quantitative Chemical Analysis", Macmillan, London, pp.842-860 (1969). MMBI, and BI were synthesized by published procedures as described by Doerge, D.R., Biochem, Vol. 27, pp. 3697-3700 (1988) and were recrystallized from aqueous ethanol. MeBI was purified by distillation and DMeBI^+ was synthesized and purified by recrystallization from ethyl acetate/methanol. 1-^13 C-MMBI was synthesized from ^13 CH3 I according to the procedure disclosed by Doerge, D.R., in, J. Lab. Comp. and Radiopharm., Vol.25, pp.985-990 (1988). PPHP and PPA were prepared, purified and analyzed as previously described by Doerge, Biochem, Vol.27, p.11 (1988). The methyl ester of 1-methyl-benzimidazole-2-sulfinic acid was prepared by addition of hydrogen peroxide (5 equivalents of a 10 M solution) to MMBI (0.1 M) in methanol. The products, MeBI and the ester, were obtained following preparative TLC on silica (Uniplate, Analtech Co., Newark, DL) using 5% methanol/chloroform as eluant.
Inhibition of LPX activity by thiones was determined from the kinetics of iodide ion, guaiacol or ABTS oxidation assays conducted at 25° C. Kinetic parameters of suicide inactivation were determined as previously described. Doerge, Biochem. Vol.27, pp.3697-3700 (1988).

Assay [2] has as its target T1, LPX. In words: LPX-catalyzed oxidation of guaiacol or ABTS. The assay is classed as biochemical, bovine. Conditions: LPX plus hydrogen peroxide. From the text: (§2) Materials used in the examples below were obtained from the following sources. Bovine LPX, bovine liver catalase, glucose oxidase, 30% hydrogen peroxide, glucose, guaiacol, ABTS and deuterium oxide were purchased from Sigma Chemical Company. Selenium dioxide, MBI ^13 CH3 I and PBA were purchased from Aldrich Chemical Company and PBA was purified as previously described by Fieset et al., Reagents for Organic Synthesis, Vol. I, pp.135-139, John Wiley and Sons, N.Y. (1967). LPX purity was checked by PAGE, as described by Doerge, D.R., et al. in, Biochem. Pharmacol., Vol.36, pp.972-974 (1986). TPX was purified from hog thyroids obtained from a local slaughterhouse by published procedures. Doerge & Takazowa, Chemical Research in Toxicology, Vol. 3, pp. 98-101 (1990). TPX purity was determined by LC and its concentration determined spectophotometrically. Hydroperoxide concentrations were determined by iodometric titration, as described by Kolthoff, et al., in "Quantitative Chemical Analysis", Macmillan, London, pp.842-860 (1969). […] PPHP and PPA were prepared, purified and analyzed as previously described by Doerge, Biochem, Vol.27, p.11 (1988). […]
(§3) Inhibition of LPX activity by thiones was determined from the kinetics of iodide ion, guaiacol or ABTS oxidation assays conducted at 25° C. Kinetic parameters of suicide inactivation were determined as previously described. […]

Assay [3] has as its target T1, LPX. In words: LPX-catalyzed iodide ion oxidation (triiodide formation). Format: biochemical, bovine.
Description: as §1, with “The products, MeBI and the ester, were obtained following preparative TLC on silica (Uniplate, Analtech Co., Newark, DL) using 5% methanol/chloroform as eluant.” left out
as §3

The target in assay [4] is T1, LPX. In words: LPX iodide ion oxidation activity after incubation and dilution. Format: biochemical, bovine. Particulars: for remaining activity at 100 µM: 100 μM DMMBI, 100 s at 25° C., 200-fold dilution, n=4, read-out: Rate (% of control).
Description: as §1
The following experiment was performed to determine the effect of DMMBI oxidation on LPX activity. LPX (0.1 μM, final concentration) was incubated with hydrogen peroxide (100 μM), iodide ion (5 mM) and DMMBI (100 μM), as indicated in Table 2. After a 100 second incubation at 25° C., an aliquot was diluted 200-fold and the iodide ion oxidation activity determined. Values shown in Table 2, are averages +/- standard deviations (n=4) of the percentage relative to untreated LPX.

The target in assay [5] is T1, LPX. In words: LPX-catalyzed tyrosine iodination. The assay is classed as biochemical, bovine.
Description: as §2
In this experiment the effect of DMMBI on tyrosine iodination catalyzed by LPX was determined. […]

For assay [6], the target named is T1, LPX. Description: LPX-mediated covalent binding of labelled thiocarbamides to LPX. Also on record: species or system bovine. Particulars: +H2O2 vs. +H2O2 +KI; 14C- and 35S-labelled.
Description: as §1
LPX-mediated covalent binding of ^14 C- and ^35 S-labelled thiocarbamides to LPX under iodide-dependent and -independent conditions was measured.

The nature of assay [7]: reaction of DMMBI with preformed triiodide. Particulars: triiodide formed by H2O2, LPX and iodide ion. From the text: When triiodide ion was formed by addition of hydrogen peroxide to LPX and iodide ion, addition of DMMBI caused rapid quenching of triiodide (ca. 1 sec) and DMeBI^+ was the sole product. Triiodide produced by addition of […] to aqueous iodide ion reacted identically with DMMBI.

Entries after “also recorded” stand apart in the source; their conditions may differ. Like-named read-outs stand apart in the source and are kept apart here.

With `Cn1c(=S)n(C)c2ccccc21` [DMMBI, 1,3-dimethylbenzimidazole-2-thione], at LPX [1], the “LPX inactivation / loss of LPX activity” value is “does not inactivate LPX or TPX”. Moreover, the “effect on rate of enzymatic oxidation of guaiacol or ABTS” value at LPX [2] was “did not reduce the rate of enzymatic oxidation; also recorded: does not affect LPX or TPX/hydrogen peroxide-catalyzed oxidation of the substrates ABTS and guaiacol”. Besides, the “inhibition of iodide ion oxidation (triiodide formation)” value on LPX [3] (LPX, H2O2, iodide ion) is “marked inhibition of iodide ion oxidation; also recorded: inhibits only iodide ion oxidation”. Besides, the lag period result at LPX [3] (dependence on DMMBI concentration) is given as “proportional to the concentration of DMMBI”. For the same compound, the remaining activity at 100 µM at LPX [4] (LPX + DMMBI) came out at 100 ± 4%; on LPX [4] (LPX + H2O2 + DMMBI + I-) it was 107 ± 6%; on LPX [4] (LPX + H2O2 + DMMBI), 104 ± 6%. Also, the “loss of enzymatic activity” value at LPX [4] (LPX/hydrogen peroxide, absence of iodide ion) was “did not cause any loss of enzymatic activity”; at LPX [4] (iodide ion present, DMMBI converted to DMeBI+, 1/200 dilution) it was “no loss of enzymatic activity was detected”. In addition, the tyrosine iodination entry on LPX [5] is recorded as “inhibits tyrosine iodination”. The “covalent binding to LPX” value at LPX [6] was “no binding over unstimulated controls”. Moreover, the “time of triiodide quenching” value in assay [7] is “ca. 1 sec”.
